Results: article PMC7265341, “Quantifying CDK inhibitor selectivity in live cells” (Nature Communications, 2020)

Key:
[1] = biological target: CDK14/Cyclin Y (Homo sapiens, UniProt O94921); assay: NanoBRET live-cell target engagement, CDK14-NanoLuc/Cyclin Y in HEK-293; assay type: binding; details: CDK14/Y, 10µM
[2] = biological target: CDK4/Cyclin D1 (Homo sapiens, UniProt P11802); assay: NanoBRET live-cell target engagement, NanoLuc-CDK4/Cyclin D1 in HEK-293; assay type: binding; details: CDK4/D1, 10µM
[3] = biological target: CDK15/Cyclin Y (Homo sapiens, UniProt Q96Q40); assay: NanoBRET live-cell target engagement, NanoLuc-CDK15/Cyclin Y in HEK-293; assay type: binding; details: CDK15/Y, 10µM
[4] = biological target: CDK7 (Homo sapiens, UniProt P50613); assay: NanoBRET live-cell target engagement, NanoLuc-CDK7 in HEK-293; assay type: binding; details: CDK7, 10µM
[5] = biological target: CDK9/Cyclin K (Homo sapiens, UniProt P50750); assay: NanoBRET live-cell target engagement, NanoLuc-CDK9/Cyclin K in HEK-293; assay type: binding; details: CDK9/K, 10µM
[6] = biological target: CDK1/Cyclin E1 (Homo sapiens, UniProt P06493); assay: NanoBRET live-cell target engagement, CDK1-NanoLuc/Cyclin E1 in HEK-293; assay type: binding; details: CDK1/E1, 10µM
[7] = biological target: CDK2/Cyclin E1 (Homo sapiens, UniProt P24941); assay: NanoBRET live-cell target engagement, CDK2-NanoLuc/Cyclin E1 in HEK-293; assay type: binding; details: CDK2/E1, 10µM
[8] = biological target: CDK6/Cyclin D1 (Homo sapiens, UniProt Q00534); assay: NanoBRET live-cell target engagement, NanoLuc-CDK6/Cyclin D1 in HEK-293; assay type: binding; details: CDK6/D1, 10µM
[9] = biological target: CDK19/Cyclin C (Homo sapiens, UniProt Q9BWU1); assay: NanoBRET live-cell target engagement, NanoLuc-CDK19/Cyclin C in HEK-293; details: CDK19/C, 10µM
[10] = biological target: CDK3/Cyclin E1 (Homo sapiens, UniProt Q00526); assay: NanoBRET live-cell target engagement, CDK3-NanoLuc/Cyclin E1 in HEK-293; assay type: binding; details: CDK3/E1, 10µM
[11] = biological target: CDK8/Cyclin C (Homo sapiens, UniProt P49336); assay: NanoBRET live-cell target engagement, NanoLuc-CDK8/Cyclin C in HEK-293; assay type: binding; details: CDK8/C, 10µM
[12] = biological target: CDK5/CDK5R1 (Homo sapiens, UniProt Q00535); assay: NanoBRET live-cell target engagement, CDK5-NanoLuc/CDK5R1 in HEK-293; assay type: binding; details: CDK5/CDK5R1, 10µM
[13] = biological target: CDK17/Cyclin Y (Homo sapiens, UniProt Q00537); assay: NanoBRET live-cell target engagement, CDK17-NanoLuc/Cyclin Y in HEK-293; assay type: binding; details: CDK17/Y, 10µM
[14] = biological target: CDK12/Cyclin K (Homo sapiens, UniProt Q9NYV4); assay: NanoBRET live-cell target engagement, CDK12-NanoLuc/Cyclin K in HEK-293; assay type: binding; details: CDK12/K, 10µM
[15] = biological target: CDK18/Cyclin Y (Homo sapiens, UniProt Q07002); assay: NanoBRET live-cell target engagement, CDK18-NanoLuc/Cyclin Y in HEK-293; assay type: binding; details: CDK18/Y, 10µM
[16] = biological target: CDK10/Cyclin L2 (Homo sapiens, UniProt Q15131); assay: NanoBRET live-cell target engagement, CDK10-NanoLuc/Cyclin L2 in HEK-293; details: CDK10/L2, 10µM
[17] = biological target: CDK11B/Cyclin L2 (Homo sapiens, UniProt P21127); assay: NanoBRET live-cell target engagement, CDK11B-NanoLuc/Cyclin L2 in HEK-293; assay type: binding; details: CDK11b/L2, 10µM
[18] = biological target: T1, CDK11A/Cyclin L2 (Homo sapiens, UniProt Q9UQ88); assay: NanoBRET live-cell target engagement, CDK11A-NanoLuc/Cyclin L2 in HEK-293; assay type: binding; details: CDK11a/L2, 10µM
T1 sequence (Q9UQ88 1-783): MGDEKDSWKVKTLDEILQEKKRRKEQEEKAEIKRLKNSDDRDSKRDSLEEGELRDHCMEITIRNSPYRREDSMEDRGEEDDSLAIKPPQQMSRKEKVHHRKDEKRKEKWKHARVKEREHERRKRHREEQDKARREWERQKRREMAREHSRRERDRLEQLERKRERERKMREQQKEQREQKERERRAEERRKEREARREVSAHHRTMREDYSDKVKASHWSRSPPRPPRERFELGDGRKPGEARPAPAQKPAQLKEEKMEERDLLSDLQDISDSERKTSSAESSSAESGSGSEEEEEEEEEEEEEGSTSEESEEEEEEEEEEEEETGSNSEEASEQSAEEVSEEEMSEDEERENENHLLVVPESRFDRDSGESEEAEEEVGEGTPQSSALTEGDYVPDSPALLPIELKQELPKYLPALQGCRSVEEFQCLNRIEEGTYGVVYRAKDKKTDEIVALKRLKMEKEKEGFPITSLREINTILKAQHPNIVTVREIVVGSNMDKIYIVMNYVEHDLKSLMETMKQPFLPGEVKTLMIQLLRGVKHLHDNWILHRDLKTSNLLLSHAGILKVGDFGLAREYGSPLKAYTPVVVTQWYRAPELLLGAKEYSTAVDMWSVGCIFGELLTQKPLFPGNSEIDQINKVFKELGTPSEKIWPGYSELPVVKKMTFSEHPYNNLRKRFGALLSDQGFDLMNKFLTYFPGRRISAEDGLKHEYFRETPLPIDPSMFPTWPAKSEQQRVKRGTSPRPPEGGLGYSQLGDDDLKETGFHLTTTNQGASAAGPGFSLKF

[19] = biological target: CDK13/Cyclin K (Homo sapiens, UniProt Q14004); assay: NanoBRET live-cell target engagement, CDK13-NanoLuc/Cyclin K in HEK-293; assay type: binding; details: CDK13/K, 10µM
[20] = biological target: CDK20/Cyclin H (Homo sapiens, UniProt Q8IZL9); assay: NanoBRET live-cell target engagement, NanoLuc-CDK20/Cyclin H in HEK-293; assay type: binding; details: CDK20/H; 10µM
[21] = biological target: CDK16/Cyclin Y (Homo sapiens, UniProt Q00536); assay: NanoBRET live-cell target engagement, CDK16-NanoLuc/Cyclin Y in HEK-293; assay type: binding; details: CDK16/Y; 10µM

CDK3/Cyclin E1, sequence (Q00526 whole entry): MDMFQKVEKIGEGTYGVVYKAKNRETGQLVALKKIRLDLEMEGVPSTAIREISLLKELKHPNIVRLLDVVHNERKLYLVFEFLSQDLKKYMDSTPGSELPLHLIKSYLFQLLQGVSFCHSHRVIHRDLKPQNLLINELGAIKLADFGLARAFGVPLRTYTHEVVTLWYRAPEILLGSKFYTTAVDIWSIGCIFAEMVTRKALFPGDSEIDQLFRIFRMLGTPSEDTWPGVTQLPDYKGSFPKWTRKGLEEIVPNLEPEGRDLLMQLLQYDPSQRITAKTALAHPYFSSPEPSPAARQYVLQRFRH
CDK3/Cyclin E1, sequence (P24864 whole entry partner): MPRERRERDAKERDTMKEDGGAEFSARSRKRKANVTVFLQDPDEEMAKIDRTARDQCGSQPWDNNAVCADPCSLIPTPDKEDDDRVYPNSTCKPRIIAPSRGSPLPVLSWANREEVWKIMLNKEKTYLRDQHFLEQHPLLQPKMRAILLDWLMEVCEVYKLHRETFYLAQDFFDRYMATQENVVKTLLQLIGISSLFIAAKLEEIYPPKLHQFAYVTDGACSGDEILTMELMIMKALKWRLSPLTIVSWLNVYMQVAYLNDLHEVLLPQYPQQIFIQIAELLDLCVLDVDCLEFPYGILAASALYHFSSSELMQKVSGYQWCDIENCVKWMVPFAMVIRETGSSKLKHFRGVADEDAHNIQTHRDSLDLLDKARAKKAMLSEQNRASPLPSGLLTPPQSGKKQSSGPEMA
CDK7, sequence (P50613 whole entry): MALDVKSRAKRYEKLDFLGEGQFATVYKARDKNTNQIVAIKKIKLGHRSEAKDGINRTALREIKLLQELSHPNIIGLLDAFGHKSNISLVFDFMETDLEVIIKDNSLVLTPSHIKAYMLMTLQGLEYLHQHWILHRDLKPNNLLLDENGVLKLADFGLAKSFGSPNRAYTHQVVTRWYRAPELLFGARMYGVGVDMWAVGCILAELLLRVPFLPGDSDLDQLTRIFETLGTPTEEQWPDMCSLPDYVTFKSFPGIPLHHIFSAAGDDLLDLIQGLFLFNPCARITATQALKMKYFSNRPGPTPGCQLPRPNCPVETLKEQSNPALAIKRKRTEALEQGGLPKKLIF
CDK10/Cyclin L2, sequence (Q15131 whole entry): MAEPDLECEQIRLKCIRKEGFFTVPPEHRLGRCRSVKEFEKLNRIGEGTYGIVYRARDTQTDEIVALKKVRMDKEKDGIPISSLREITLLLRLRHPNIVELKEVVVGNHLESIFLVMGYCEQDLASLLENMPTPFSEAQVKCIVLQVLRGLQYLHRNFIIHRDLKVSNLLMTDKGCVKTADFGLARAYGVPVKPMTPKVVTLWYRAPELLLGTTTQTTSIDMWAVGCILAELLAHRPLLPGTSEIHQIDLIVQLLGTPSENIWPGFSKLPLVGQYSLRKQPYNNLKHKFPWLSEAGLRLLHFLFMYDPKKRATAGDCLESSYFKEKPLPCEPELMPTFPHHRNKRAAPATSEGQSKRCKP
CDK11B/Cyclin L2, sequence (P21127 1-782 isoform P21127-2): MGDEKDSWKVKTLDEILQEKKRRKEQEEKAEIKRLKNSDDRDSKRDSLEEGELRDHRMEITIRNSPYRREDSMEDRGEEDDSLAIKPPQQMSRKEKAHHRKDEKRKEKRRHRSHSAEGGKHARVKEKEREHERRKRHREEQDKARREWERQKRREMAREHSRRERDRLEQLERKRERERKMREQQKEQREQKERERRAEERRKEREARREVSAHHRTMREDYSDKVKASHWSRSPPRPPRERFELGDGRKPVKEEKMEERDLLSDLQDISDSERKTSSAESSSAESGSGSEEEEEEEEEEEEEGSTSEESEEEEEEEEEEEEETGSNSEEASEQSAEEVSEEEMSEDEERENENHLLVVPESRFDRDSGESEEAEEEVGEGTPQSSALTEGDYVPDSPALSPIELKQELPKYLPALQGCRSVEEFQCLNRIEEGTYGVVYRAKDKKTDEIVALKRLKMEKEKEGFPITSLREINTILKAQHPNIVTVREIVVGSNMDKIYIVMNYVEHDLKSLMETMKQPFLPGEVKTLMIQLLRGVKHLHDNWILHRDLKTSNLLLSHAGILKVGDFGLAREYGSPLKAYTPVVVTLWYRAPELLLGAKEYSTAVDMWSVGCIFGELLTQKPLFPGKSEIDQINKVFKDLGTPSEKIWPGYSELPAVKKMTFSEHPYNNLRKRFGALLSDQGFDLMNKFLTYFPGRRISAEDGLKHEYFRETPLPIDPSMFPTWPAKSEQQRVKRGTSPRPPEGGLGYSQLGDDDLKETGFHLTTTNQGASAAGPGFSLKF
CDK12/Cyclin K, sequence (Q9NYV4 1-1481 isoform Q9NYV4-2): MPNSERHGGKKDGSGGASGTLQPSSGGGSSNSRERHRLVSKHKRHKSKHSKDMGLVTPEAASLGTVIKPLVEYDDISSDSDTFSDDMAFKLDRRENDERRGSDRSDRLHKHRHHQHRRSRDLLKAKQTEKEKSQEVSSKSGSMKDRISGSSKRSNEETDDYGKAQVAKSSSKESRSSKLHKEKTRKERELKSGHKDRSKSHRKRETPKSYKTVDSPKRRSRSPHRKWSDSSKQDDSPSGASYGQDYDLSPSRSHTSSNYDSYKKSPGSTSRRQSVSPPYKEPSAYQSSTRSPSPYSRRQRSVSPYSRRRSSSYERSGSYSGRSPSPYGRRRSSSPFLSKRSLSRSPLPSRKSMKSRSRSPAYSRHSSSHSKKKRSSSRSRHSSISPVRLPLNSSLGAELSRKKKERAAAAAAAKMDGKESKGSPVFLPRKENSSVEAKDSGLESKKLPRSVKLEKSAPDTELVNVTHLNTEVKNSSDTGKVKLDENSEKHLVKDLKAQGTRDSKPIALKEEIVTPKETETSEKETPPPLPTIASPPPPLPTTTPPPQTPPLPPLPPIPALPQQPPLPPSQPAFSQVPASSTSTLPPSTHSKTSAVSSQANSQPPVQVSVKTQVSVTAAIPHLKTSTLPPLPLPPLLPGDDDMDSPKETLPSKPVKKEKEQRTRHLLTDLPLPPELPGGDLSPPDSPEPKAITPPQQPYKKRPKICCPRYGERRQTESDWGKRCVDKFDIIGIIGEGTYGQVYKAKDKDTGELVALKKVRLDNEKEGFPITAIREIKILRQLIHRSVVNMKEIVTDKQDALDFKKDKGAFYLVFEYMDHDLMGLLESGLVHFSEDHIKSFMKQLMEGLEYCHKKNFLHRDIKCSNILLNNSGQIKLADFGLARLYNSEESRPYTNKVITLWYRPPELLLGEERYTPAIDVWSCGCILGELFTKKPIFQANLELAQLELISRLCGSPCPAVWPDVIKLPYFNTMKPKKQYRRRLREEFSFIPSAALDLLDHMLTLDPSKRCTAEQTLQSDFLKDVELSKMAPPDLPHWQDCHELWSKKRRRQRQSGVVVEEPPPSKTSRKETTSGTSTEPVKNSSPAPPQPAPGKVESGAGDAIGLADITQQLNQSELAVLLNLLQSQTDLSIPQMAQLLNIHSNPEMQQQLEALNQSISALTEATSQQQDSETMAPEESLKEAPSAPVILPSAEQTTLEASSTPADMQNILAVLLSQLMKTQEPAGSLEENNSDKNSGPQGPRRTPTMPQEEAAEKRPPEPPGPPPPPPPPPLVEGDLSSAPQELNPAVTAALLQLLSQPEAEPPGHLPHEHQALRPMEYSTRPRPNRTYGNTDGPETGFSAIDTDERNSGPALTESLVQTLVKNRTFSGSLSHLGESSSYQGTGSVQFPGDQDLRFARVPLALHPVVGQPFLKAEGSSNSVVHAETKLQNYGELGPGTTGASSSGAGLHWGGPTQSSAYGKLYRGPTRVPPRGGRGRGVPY
CDK12/Cyclin K, sequence (O75909 whole entry partner): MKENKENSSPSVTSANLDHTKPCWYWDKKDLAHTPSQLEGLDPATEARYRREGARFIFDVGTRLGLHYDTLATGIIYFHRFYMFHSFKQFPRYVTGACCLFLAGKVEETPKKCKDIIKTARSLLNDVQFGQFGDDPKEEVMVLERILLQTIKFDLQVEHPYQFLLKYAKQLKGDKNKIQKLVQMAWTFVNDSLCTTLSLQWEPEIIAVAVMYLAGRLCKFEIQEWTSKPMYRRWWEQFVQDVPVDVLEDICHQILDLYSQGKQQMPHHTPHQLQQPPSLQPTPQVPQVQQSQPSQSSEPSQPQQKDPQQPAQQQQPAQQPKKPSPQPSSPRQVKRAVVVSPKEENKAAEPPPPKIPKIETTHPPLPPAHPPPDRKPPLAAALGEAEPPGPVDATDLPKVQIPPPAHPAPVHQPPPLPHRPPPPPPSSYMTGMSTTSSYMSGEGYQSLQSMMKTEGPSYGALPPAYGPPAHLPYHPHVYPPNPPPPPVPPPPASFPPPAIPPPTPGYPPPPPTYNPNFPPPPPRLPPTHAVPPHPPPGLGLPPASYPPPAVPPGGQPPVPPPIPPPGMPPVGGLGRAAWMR
CDK8/Cyclin C, sequence (P49336 whole entry): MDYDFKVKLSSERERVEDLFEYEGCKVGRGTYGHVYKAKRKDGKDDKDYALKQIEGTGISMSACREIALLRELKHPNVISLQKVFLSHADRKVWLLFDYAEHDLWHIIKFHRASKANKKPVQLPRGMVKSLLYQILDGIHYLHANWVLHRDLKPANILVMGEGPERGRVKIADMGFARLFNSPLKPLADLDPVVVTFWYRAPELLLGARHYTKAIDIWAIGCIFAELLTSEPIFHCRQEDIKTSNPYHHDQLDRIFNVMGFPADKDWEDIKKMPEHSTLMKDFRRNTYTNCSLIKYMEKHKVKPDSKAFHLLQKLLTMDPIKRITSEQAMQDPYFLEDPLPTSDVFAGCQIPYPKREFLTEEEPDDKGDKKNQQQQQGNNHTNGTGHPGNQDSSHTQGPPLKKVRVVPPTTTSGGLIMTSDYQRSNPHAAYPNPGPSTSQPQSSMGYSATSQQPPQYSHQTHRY
CDK8/Cyclin C, sequence (P24863 whole entry partner): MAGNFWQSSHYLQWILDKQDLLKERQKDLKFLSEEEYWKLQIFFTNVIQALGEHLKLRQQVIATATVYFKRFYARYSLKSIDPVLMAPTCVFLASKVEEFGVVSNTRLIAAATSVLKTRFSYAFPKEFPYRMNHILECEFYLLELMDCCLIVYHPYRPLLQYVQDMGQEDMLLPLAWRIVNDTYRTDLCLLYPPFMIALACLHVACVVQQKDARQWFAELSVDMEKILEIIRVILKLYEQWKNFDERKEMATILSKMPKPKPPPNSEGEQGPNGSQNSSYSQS

## CCC(CO)Nc1nc(Nc2cccc(-c3ccccn3)c2)c2ncn(C(C)C)c2n1.Cl.O [(R) - DRF053]
[1]
  Inhibition at 10µM (%) Replicate 1: 8.2%
  Inhibition at 10µM (%) Replicate 2: 16.5%
[1]; average of replicates
  Inhibition at 10µM (%) Average: 12.3%
[2]
  Inhibition at 10µM (%) Replicate 1: 19.9%
  Inhibition at 10µM (%) Replicate 2: 22.3%
[2]; average of replicates
  Inhibition at 10µM (%) Average: 21.1%
[3]
  Inhibition at 10µM (%) Replicate 1: 25.0%
  Inhibition at 10µM (%) Replicate 2: 29.8%
[3]; average of replicates
  Inhibition at 10µM (%) Average: 27.4%
[4]
  Inhibition at 10µM (%) Replicate 1: 45.0%
  Inhibition at 10µM (%) Replicate 2: 59.3%
[4]; average of replicates
  Inhibition at 10µM (%) Average: 52.2%
[5]
  Inhibition at 10µM (%) Replicate 1: 18.8%
  Inhibition at 10µM (%) Replicate 2: 27.7%
[5]; average of replicates
  Inhibition at 10µM (%) Average: 23.2%
[6]
  Inhibition at 10µM (%) Replicate 1: 46.5%
  Inhibition at 10µM (%) Replicate 2: 41.5%
[6]; average of replicates
  Inhibition at 10µM (%) Average: 44.0%
[7]
  Inhibition at 10µM (%) Replicate 1: 75.6%
  Inhibition at 10µM (%) Replicate 2: 76.1%
[7]; average of replicates
  Inhibition at 10µM (%) Average: 75.9%
[8]
  Inhibition at 10µM (%) Replicate 1: 6.0%
  Inhibition at 10µM (%) Replicate 2: 6.7%
[8]; average of replicates
  Inhibition at 10µM (%) Average: 6.4%
[9]
  Inhibition at 10µM (%) Replicate 1: 16.0%
  Inhibition at 10µM (%) Replicate 2: -0.8%
[9]; average of replicates
  Inhibition at 10µM (%) Average: 7.6%
[10]
  Inhibition at 10µM (%) Replicate 1: 72.1%
  Inhibition at 10µM (%) Replicate 2: 71.8%
[10]; average of replicates
  Inhibition at 10µM (%) Average: 72.0%
[11]
  Inhibition at 10µM (%) Replicate 1: 6.6%
  Inhibition at 10µM (%) Replicate 2: -1.1%
[11]; average of replicates
  Inhibition at 10µM (%) Average: 2.7%
[12]
  Inhibition at 10µM (%) Replicate 1: 69.5%
  Inhibition at 10µM (%) Replicate 2: 71.6%
[12]; average of replicates
  Inhibition at 10µM (%) Average: 70.6%
[13]
  Inhibition at 10µM (%) Replicate 1: 29.1%
  Inhibition at 10µM (%) Replicate 2: 25.1%
[13]; average of replicates
  Inhibition at 10µM (%) Average: 27.1%
[14]
  Inhibition at 10µM (%) Replicate 1: 4.1%
  Inhibition at 10µM (%) Replicate 2: -13.6%
[14]; average of replicates
  Inhibition at 10µM (%) Average: -4.7%
[15]
  Inhibition at 10µM (%) Replicate 1: 37.9%
  Inhibition at 10µM (%) Replicate 2: 40.9%
[15]; average of replicates
  Inhibition at 10µM (%) Average: 39.4%
[16]
  Inhibition at 10µM (%) Replicate 1: 13.4%
  Inhibition at 10µM (%) Replicate 2: 27.0%
[16]; average of replicates
  Inhibition at 10µM (%) Average: 20.2%
[17]
  Inhibition at 10µM (%) Replicate 1: 11.4%
  Inhibition at 10µM (%) Replicate 2: 7.8%
[17]; average of replicates
  Inhibition at 10µM (%) Average: 9.6%
[18]
  Inhibition at 10µM (%) Replicate 1: 8.6%
  Inhibition at 10µM (%) Replicate 2: 33.3%
[18]; average of replicates
  Inhibition at 10µM (%) Average: 21.0%
[19]
  Inhibition at 10µM (%) Replicate 1: 7.7%
  Inhibition at 10µM (%) Replicate 2: -21.5%
[19]; average of replicates
  Inhibition at 10µM (%) Average: -6.9%
[20]
  Inhibition at 10µM (%) Replicate 1: 16.2%
  Inhibition at 10µM (%) Replicate 2: 18.8%
[21]
  Inhibition at 10µM (%) Replicate 1: 15.7%
  Inhibition at 10µM (%) Replicate 2: 16.9%
